Source: US20240043943A1, “METHODS AND COMPOSITIONS FOR PROTEASE REPORTER ASSAYS AND MODULATORS” (712 NORTH, INC., priority 2021, published 2024)
“Also recorded” adds a separate entry of the source. Where a name gives a salt, the structure may show the parent alone. Read-outs that look alike come from different tables or passages of the source. Starred links: 1 amine or outer side, 2 acyl side, 3 side chain; linkers in the order of their positions; H or OH if unused. Positions of bridges follow the written chain, without caps; N, C: chain ends. Non-standard residues stand in square brackets, D forms with d. Residues, ends and D or L forms follow the SMILES beside them. Chains are numbered I, II in the order given. Actinocin(9to1) = Cc1c2oc3c(C)ccc(C(=O)[*:1])c3nc-2c(C(=O)[*:2])c(N)c1=O; NMeV = CN[C@H](C(=O)O)C(C)C; Sar = CNCC(=O)O

How the values were obtained:
[1] = target: T1, OMA1 protease (Homo sapiens, UniProt Q96E52); experiment: Rep#15 / Luke-S1 OMA1 reporter bioluminescence assay in Hek293T cells; assay type: cell-based; parameters: The OMA1 enzyme is dormant under physiological cell culture conditions in these cells; endogenous in cells; host or cells: Hek293T cells, transiently or stably (Luke-S1 line, ATCC PTA-127022) expressing reporter #15; conditions: for OMA1 modulating properties: drugs identified with the OMA1 assays (FIG. 17, FIG. 10)
T1 sequence (Q96E52 144-524): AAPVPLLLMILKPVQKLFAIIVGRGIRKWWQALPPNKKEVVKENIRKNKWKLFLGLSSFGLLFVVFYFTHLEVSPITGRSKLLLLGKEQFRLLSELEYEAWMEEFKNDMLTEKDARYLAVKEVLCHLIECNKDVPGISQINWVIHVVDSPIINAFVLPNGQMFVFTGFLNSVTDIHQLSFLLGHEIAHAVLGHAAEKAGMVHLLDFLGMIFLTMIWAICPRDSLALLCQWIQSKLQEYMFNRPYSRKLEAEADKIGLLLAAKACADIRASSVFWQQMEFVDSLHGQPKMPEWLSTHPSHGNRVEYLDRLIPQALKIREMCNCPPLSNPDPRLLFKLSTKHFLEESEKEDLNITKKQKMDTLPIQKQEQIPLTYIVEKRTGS
Description: Example 1 provides a nonlimiting example of generation and use of a reporter of present invention and illustrates its function. To this end, generation and use of reporter gene #01 (SEQ ID NO: 01) and reporter gene #15 (SEQ ID NO: 15) are described and their function compared to each other. The general design of a reporter of present invention is illustrated in FIG. 1A and its working principle in FIG. 1B. A reporter in general, and reporter gene #01 and reporter gene #15 in particular, can be generated as follows. DNA sequences of a reporter may be codon-optimized in silico or by any other way for expression in a suitable host. DNA sequences of reporter genes #01 and #15 were codon-optimized for expression in humans (SEQ ID NO: 02 and SEQ ID NO: 16, respectively). The (optimized) sequences were synthesized and cloned into a pcDNA3.1 expression vector under the control of a CMV promotor (see FIG. 1 for an illustration of such vector). Of course, an expression system and a host should match for best results. The host in this example were Hek293T cells, which were maintained under standard culture conditions in DMEM with 10% Fetal Bovine Serum and 1% Pen/Strep. For an experiment, Hek293T cells were seeded in opaque white tissue-culture treated 96-well plates at 80% confluency and transfected with vectors carrying reporter gene #01 and reporter gene #15 and 24 hours later incubated for 30 minutes at 37° C. in OptiMEM or in OptiMEM with 10 μM CCCP. After 30 minutes, the OptiMEM cell-culture media was replaced with luciferase substrate (furimazine, Promega) diluted 1:100 in OptiMEM, and bioluminescence was measured with a Fluoroskan Ascent FL (Thermo Scientific) using a 517 nm single-pass filter and 200 milliseconds integration time. […] Reporter #01 comprises a large part of OPA1's amino-terminus as mitochondrial targeting sequence, which is cleaved by the mitochondrial processing peptidase upon mitochondrial import (see Example 2). Reporter #15 was initially envisioned as a control for reporter #01. Reporter #15 therefore lacks the first 66 amino acids of reporter #01 believed to be essential for mitochondrial import.
Example 5 illustrates how mitochondrial toxicity can be measured with reporter and assays of present invention. The OMA1-OPA1 pathway basically serves as a “canary-in-the-coalmine” for a mitochondrial deterioration. […] Hek293T cells expressing reporter #01 and #15 were exposed to CCCP, tipranavir and sorafenib (in OptiMEM) for 30 minutes before the medium was replaced with furimazine (1:100), and bioluminescence measured.
The following non-limiting examples illustrate in more details the in vivo assessment of OMA1 protease activity utilizing an artificial luciferase reporter of present invention stably expressed in Hek293T cells.

[2] = target: T1, OMA1 protease; experiment: Rep#15 assay with phenanthroline preincubation before CCCP (OMA1 inhibitor control); assay type: cell-based; parameters: The OMA1 enzyme is dormant under physiological cell culture conditions in these cells; endogenous in cells; host or cells: Hek293T cells, transiently or stably (Luke-S1 line, ATCC PTA-127022) expressing reporter #15; conditions: 500 μM phenanthroline 1 hour, then 10 μM CCCP 30 minutes
Description: Example 2 refers to FIG. 4 and illustrates hydrolysis of reporter #01 and reporter #15. For this example, transfected cells were selected by puromycin. Reporter cells were exposed for 30 minutes to 10 μM CCCP before being harvested in RIPA buffer and subjected to 12% SDS-PAGE followed by Western-blotting. […] Full-length reporter #01 has a predicted size of 39.6 kDa but was not detected in Western blots. […] At the same time, reporter #15 is not processed upon import, but migrated at its expected size of 31.9 kDa. (Example 7 establishes mitochondrial import by showing co-migration of reporter #15 with OPA1 and OMA1 in mitochondria-enriched fractions.) Reporter #15 appears to be more abundant and stable, which may explain its better performance. […] This provides additional evidence that reporter #15 is indeed localized in mitochondria where it is recognized and hydrolyzed by OMA1. […] Therefore, phenanthroline was used as a positive control in the reporter assay. If reporter #15 indeed is cleaved by OMA1, then phenanthroline should prevent this at least to a certain extend by inhibiting OMA1 and accordingly preserving the signal. Hek293T cells were transfected with reporter gene #15 as described in the preceding example. […] After 30 minutes, the medium was replaced with furimazine (1:100 in OptiMEM), and bioluminescence measured as described in Example 1.

[3] = target: T1, OMA1 protease; conditions: literature; cited from earlier work
[4] = tested on: mitochondria; conditions: FDA labels, cited from earlier work
[5] = tested on: OPA1; conditions: literature; cited from earlier work
[6] = target: T1, OMA1 protease; experiment: Rep#01 OMA1 reporter bioluminescence assay in Hek293T cells; assay type: cell-based; parameters: The OMA1 enzyme is dormant under physiological cell culture conditions in these cells; endogenous in cells; host or cells: Hek293T cells, transiently or stably (Luke-S1 line, ATCC PTA-127022) expressing reporter #15; conditions: 30 minutes exposure, CCCP 10 μM
Description: Example 1 provides a nonlimiting example of generation and use of a reporter of present invention and illustrates its function. To this end, generation and use of reporter gene #01 (SEQ ID NO: 01) and reporter gene #15 (SEQ ID NO: 15) are described and their function compared to each other. The general design of a reporter of present invention is illustrated in FIG. 1A and its working principle in FIG. 1B. A reporter in general, and reporter gene #01 and reporter gene #15 in particular, can be generated as follows. DNA sequences of a reporter may be codon-optimized in silico or by any other way for expression in a suitable host. DNA sequences of reporter genes #01 and #15 were codon-optimized for expression in humans (SEQ ID NO: 02 and SEQ ID NO: 16, respectively). The (optimized) sequences were synthesized and cloned into a pcDNA3.1 expression vector under the control of a CMV promotor (see FIG. 1 for an illustration of such vector). Of course, an expression system and a host should match for best results. The host in this example were Hek293T cells, which were maintained under standard culture conditions in DMEM with 10% Fetal Bovine Serum and 1% Pen/Strep. For an experiment, Hek293T cells were seeded in opaque white tissue-culture treated 96-well plates at 80% confluency and transfected with vectors carrying reporter gene #01 and reporter gene #15 and 24 hours later incubated for 30 minutes at 37° C. in OptiMEM or in OptiMEM with 10 μM CCCP. After 30 minutes, the OptiMEM cell-culture media was replaced with luciferase substrate (furimazine, Promega) diluted 1:100 in OptiMEM, and bioluminescence was measured with a Fluoroskan Ascent FL (Thermo Scientific) using a 517 nm single-pass filter and 200 milliseconds integration time. […]
Example 5 illustrates how mitochondrial toxicity can be measured with reporter and assays of present invention. […] Hek293T cells expressing reporter #01 and #15 were exposed to CCCP, tipranavir and sorafenib (in OptiMEM) for 30 minutes before the medium was replaced with furimazine (1:100), and bioluminescence measured.

O=C(c1ccc(OCCN2CCCCC2)cc1)c1c(-c2ccc(O)cc2)sc2cc(O)ccc12 [Raloxifene]
OMA1 modulating properties [1]: OMA1 modulating properties

Cc1cc(Nc2ncc(Cl)c(Nc3ccccc3S(=O)(=O)C(C)C)n2)c(OC(C)C)cc1C1CCNCC1 [Ceritinib]
OMA1 modulating properties [1]: OMA1 modulating properties

CC/C(=C(\c1ccccc1)c1ccc(OCCN(C)C)cc1)c1ccccc1 [Tamoxifen citrate]
OMA1 modulating properties [1]: OMA1 modulating properties

O=C(/C=C\n1cnc(-c2cc(C(F)(F)F)cc(C(F)(F)F)c2)n1)NNc1cnccn1 [Selinexor]
OMA1 modulating properties [1]: OMA1 modulating properties

COc1cccc2c1C(=O)c1c(O)c3c(c(O)c1C2=O)C[C@@](O)(C(=O)CO)C[C@@H]3O[C@H]1C[C@H](N)[C@H](O)[C@H](C)O1 [Doxorubicin hydrochloride]
OMA1 modulating properties [1]: OMA1 modulating properties

CN1CCN(c2ccc(C(=O)Nc3n[nH]c4ccc(Cc5cc(F)cc(F)c5)cc34)c(NC3CCOCC3)c2)CC1 [Entrectinib]
OMA1 modulating properties [1]: OMA1 modulating properties

CCCCC(=O)OCC(=O)[C@]1(O)Cc2c(O)c3c(c(O)c2[C@@H](O[C@H]2C[C@H](NC(=O)C(F)(F)F)[C@H](O)[C@H](C)O2)C1)C(=O)c1c(OC)cccc1C3=O [Valrubicin]
OMA1 modulating properties [1]: OMA1 modulating properties

c1cnc2c(c1)ccc1cccnc12 [phenanthroline]
bioluminescence signal of reporter #15 after CCCP with inhibitor pretreatment [2]: prevented reporter #15 deactivation; also recorded: largely preserved
effect on OMA1 protease [3]: can inhibit OMA1 protease in vitro

Cc1ccc(NC(=O)c2ccc(CN3CCN(C)CC3)cc2)cc1Nc1nccc(-c2cccnc2)n1 [Imatinib]
OMA1 modulating properties [1]: OMA1 modulating properties

FC(F)(F)c1ccc(CNc2ccc(Cc3c[nH]c4ncc(Cl)cc34)cn2)cn1 [Pexidartinib]
OMA1 modulating properties [1]: OMA1 modulating properties

CC(=O)[C@]1(O)Cc2c(O)c3c(c(O)c2[C@@H](O[C@H]2C[C@H](N)[C@H](O)[C@H](C)O2)C1)C(=O)c1ccccc1C3=O [Idarubicin hydrochloride]
OMA1 modulating properties [1]: OMA1 modulating properties

CN(C)C(=O)c1cc2cnc(Nc3ccc(N4CCNCC4)cn3)nc2n1C1CCCC1 [Ribociclib]
OMA1 modulating properties [1]: OMA1 modulating properties

COc1cccc2c1C(=O)c1c(O)c3c(c(O)c1C2=O)C[C@@](O)(C(C)=O)C[C@@H]3O[C@H]1C[C@H](N)[C@H](O)[C@H](C)O1 [Daunorubicin hydrochloride]
OMA1 modulating properties [1]: OMA1 modulating properties

CCC[C@@]1(CCc2ccccc2)CC(O)=C([C@H](CC)c2cccc(NS(=O)(=O)c3ccc(C(F)(F)F)cn3)c2)C(=O)O1 [tipranavir]
mitochondrial toxicity [4]: exhibit mitochondrial toxicity
mitochondrial toxicity ([4]; listed as Tipranavir): cause mitochondrial toxicity

Dabrafenib mesylate
OMA1 modulating properties [1]: OMA1 modulating properties

CNC(=O)c1cc(Oc2ccc(NC(=O)Nc3ccc(Cl)c(C(F)(F)F)c3)c(F)c2)ccn1 [Regorafenib]
OMA1 modulating properties [1]: OMA1 modulating properties

Cc1c2oc3c(C)ccc(C(=O)N[C@@H]4C(=O)N[C@H](C(C)C)C(=O)N5CCC[C@H]5C(=O)N(C)CC(=O)N(C)[C@@H](C(C)C)C(=O)O[C@@H]4C)c3nc-2c(C(=O)N[C@@H]2C(=O)N[C@H](C(C)C)C(=O)N3CCC[C@H]3C(=O)N(C)CC(=O)N(C)[C@@H](C(C)C)C(=O)O[C@@H]2C)c(N)c1=O [Dactinomycin] (I: T[dV]P[Sar][NMeV] / II: T[dV]P[Sar][NMeV]; ester I:1-I:C, II:1-II:C; linker I:N-II:N via Actinocin(9to1))
OMA1 modulating properties [1]: OMA1 modulating properties

CC(C)(O)CNc1nc(Nc2ccnc(C(F)(F)F)c2)nc(-c2cccc(C(F)(F)F)n2)n1 [Enasidenib]
OMA1 modulating properties [1]: OMA1 modulating properties

Cc1cc(Nc2ncnc3ccc(NC4=NC(C)(C)CO4)cc23)ccc1Oc1ccn2ncnc2c1 [Tucatinib]
OMA1 modulating properties [1]: OMA1 modulating properties

N.N.[Cl][Pt][Cl] [cisplatin]
OPA1 cleavage [5]: can promote OPA1 cleavage

CNC(=O)c1cc(Oc2ccc(NC(=O)Nc3ccc(Cl)c(C(F)(F)F)c3)cc2)ccn1 [sorafenib, Sorafenib]
bioluminescence signal of reporter #15 ([1]; Hek293T, 30 minutes exposure, CCCP 10 μM): significantly reduced signal; also recorded: significantly reduced bioluminescence
OMA1 modulating properties [1]: OMA1 modulating properties
mitochondrial toxicity [4]: exhibit mitochondrial toxicity
bioluminescence signal of reporter #01 [6]: significantly reduced bioluminescence
bioluminescence signal of reporter #01 ([6]; listed as Sorafenib): comparable effects
OPA1 cleavage [5]: can promote OPA1 cleavage

Clc1ccc(C(c2ccccc2Cl)C(Cl)Cl)cc1 (stereo not drawn) [Mitotane]
OMA1 modulating properties [1]: OMA1 modulating properties

C=CC(=O)Nc1cc(Nc2nccc(-c3cn(C)c4ccccc34)n2)c(OC)cc1N(C)CCN(C)C [Osimertinib]
OMA1 modulating properties [1]: OMA1 modulating properties
